ChEMBL document CHEMBL5113532, “Design and Characterization of a Natural Arf-GEFs Inhibitor Prodrug CHNQD-01255 with Potent Anti-Hepatocellular Carcinoma Efficacy In Vivo” (J Med Chem, 2022)
≈ marks a conversion by molar mass, not a printed value.

How the values were obtained:
[1] = Solubility of the compound in saline/solutol HS-15 (95/5% V/V) at pH 7.4; type: physicochemical
[2] = tested on: Bel-7402; experiment: Antiproliferative activity against human Bel-7402 cells by MTT assay; type: functional, cell-based
[3] = Solubility of the compound in 0.9% NaCl at pH 7.4; type: physicochemical
[4] = Solubility of the compound in saline/DMSO (95/5% V/V) at pH 7.4; type: physicochemical
[5] = Solubility of the compound in saline/PEG400 (95/5% V/V) at pH 7.4; type: physicochemical
[6] = Solubility of the compound in saline/PEG400 (80/20% V/V) at pH 7.4; type: physicochemical
[7] = Solubility of the compound in saline/DMSO/solutol HS-15 (85/5/10% V/V/V) at pH 7.4; type: physicochemical
[8] = Stability of the compound in PBS at pH 4 to 9 measured at 25 degree C measured of 7 days by HPLC analysis; type: physicochemical; settings: buffer, pH 4, 168 h; time 7 day
[9] = Stability of the compound at 4 to 60 degree C measured of 5 days by HPLC analysis; type: physicochemical; settings: 120 h; time 5 day
[10] = tested on: HepG2; experiment: Antitumor activity against human HepG2 cells xenografted in BALB/c nude mouse assessed as tumor growth inhibition at 45 mg/kg, po qd administered daily for 21 consecutive days and measured every 3 days upto 21 days relative to control; type: functional; settings: HepG2, 504 h, time <= 21 day, read-out: TGI
[11] = Toxicity in BALB/c mouse xenografted with human HepG2 cells assessed as adverse effect at 15 to 45 mg/kg, po qd at 45 mg/kg, po treated daily for 21 days measured every 3 days for 21 days; type: organism-based; settings: in vivo, 504 h, dose 15-45 mg/kg, time 21 day
[12] = tested on: HepG2; experiment: Antitumor activity against human HepG2 cells xenografted in BALB/c nude mouse assessed as tumor growth inhibition at 1 mg/kg, iv qd administered daily for 21 consecutive days and measured every 3 days upto 21 days relative to control; type: functional; settings: HepG2, 504 h, time <= 21 day, read-out: TGI
[13] = tested on: HepG2; experiment: Antitumor activity against human HepG2 cells xenografted in BALB/c nude mouse assessed as tumor growth inhibition at 9 mg/kg, iv qd administered daily for 21 consecutive days and measured every 3 days upto 21 days relative to control; type: functional; settings: HepG2, 504 h, time <= 21 day, read-out: TGI
[14] = Toxicity in BALB/c mouse xenografted with human HepG2 cells assessed as change in body weight at 1 to 9 mg/kg, iv qd at 45 mg/kg, po treated daily for 21 days measured every 3 days upto 21 days; type: organism-based; settings: in vivo, 504 h, dose 1-9 mg/kg, time < 21 day
[15] = Half life in ICR mouse at 45 mg/kg, po measured after 0.083 to 12 hrs by UPLC-MS/MS analysis; type: ADME, organism-based; settings: in vivo, time 0.083-12 hrs
[16] = Cmax in ICR mouse at 45 mg/kg, po measured after 0.083 to 12 hrs by UPLC-MS/MS analysis; type: ADME, organism-based; design: dose 45 mg/kg, time upper 12 hrs, time lower 0.083 hrs, route po; settings: in vivo
[17] = MRT (0 to t) in ICR mouse at 45 mg/kg, po measured after 0.083 to 12 hrs by UPLC-MS/MS analysis; type: ADME, organism-based; settings: in vivo, time 0.083-12 hrs
[18] = Apparent volume of distribution in ICR mouse at 45 mg/kg, po measured after 0.083 to 12 hrs by UPLC-MS/MS analysis; type: ADME, organism-based; settings: in vivo, time 0.083-12 hrs
[19] = Clearance in ICR mouse at 45 mg/kg, po measured after 0.083 to 12 hrs by UPLC-MS/MS analysis; type: ADME, organism-based; settings: in vivo, time 0.083-12 hrs
[20] = Cmax in ICR mouse at 10 mg/kg, iv measured after 0.083 to 12 hrs by UPLC-MS/MS analysis; type: ADME, organism-based; design: time 0.083-12 hrs, dose 10 mg/kg, route iv; settings: in vivo
[21] = AUC(0 to t) in ICR mouse at 10 mg/kg, iv measured after 0.083 to 12 hrs by UPLC-MS/MS analysis; type: ADME, organism-based; design: time upper 12 hrs, dose 10 mg/kg, time lower 0.083 hrs, route iv; settings: in vivo
[22] = MRT (0 to t) in ICR mouse at 10 mg/kg, iv measured after 0.083 to 12 hrs by UPLC-MS/MS analysis; type: ADME, organism-based; settings: in vivo, time 0.083-12 hrs
[23] = Drug distribution in ICR mouse duodenum at 100 mg/kg, ip measured upto 0.5 hrs by UPLC-MS/MS analysis; type: ADME, organism-based; settings: in vivo
[24] = Drug distribution in ICR mouse Spleen at 100 mg/kg, ip measured upto 0.5 hrs by UPLC-MS/MS analysis; type: ADME, organism-based; settings: in vivo
[25] = Drug distribution in ICR mouse liver at 100 mg/kg, ip measured upto 0.5 hrs by UPLC-MS/MS analysis; type: ADME, organism-based; settings: in vivo
[26] = Drug elimination in ICR mouse heart at 100 mg/kg, ip measured for 1.5 hrs by UPLC-MS/MS analysis; type: ADME, organism-based; settings: in vivo
[27] = Drug elimination in ICR mouse liver at 100 mg/kg, ip measured for 1.5 hrs by UPLC-MS/MS analysis; type: ADME, organism-based; settings: in vivo
[28] = Drug elimination in ICR mouse kidney at 100 mg/kg, ip measured for 1.5 hrs by UPLC-MS/MS analysis; type: ADME, organism-based; settings: in vivo
[29] = Acute toxicity in po dosed ICR mouse assessed as maximum tolerated dose; type: organism-based; settings: in vivo
[30] = Acute toxicity in ip dosed ICR mouse assessed as maximum tolerated dose; type: organism-based; settings: in vivo
[31] = Toxicity in ICR mouse assessed as change in body weight at 45 mg/kg, po qd measured for 14 days; type: organism-based; settings: in vivo, 336 h, time 14 day
[32] = Toxicity in ICR mouse assessed as change in body weight at 100 mg/kg, ip qd measured for 14 days; type: organism-based; settings: in vivo, 336 h, time 14 day
[33] = Toxicity in ICR mouse assessed as mortality at 45 mg/kg, po qd measured for 14 days; type: organism-based; settings: in vivo, 336 h, time 14 day
[34] = Toxicity in ICR mouse assessed as mortality at 100 mg/kg, ip qd measured for 14 days; type: organism-based; settings: in vivo, 336 h, time 14 day
[35] = Hepatotoxicity in ICR mouse assessed as change in blood AST level at 45 mg/kg, po by biochemical assay; type: toxicity, organism-based; settings: in vivo
[36] = Renal toxicity in ICR mouse assessed as change in blood BUN level at 45 mg/kg, po by biochemical assay; type: organism-based; settings: in vivo
[37] = Renal toxicity in ICR mouse assessed as change in blood UA level at 45 mg/kg, po by biochemical assay; type: organism-based; settings: in vivo
[38] = Toxicity in ICR mouse assessed as effect on liver at 45 mg/kg, po measured after 2 weeks by H and E staining based analysis; type: organism-based; settings: in vivo, 336 h
[39] = Toxicity in ICR mouse assessed as effect on spleen at 45 mg/kg, po measured after 2 weeks by H and E staining based analysis; type: organism-based; settings: in vivo, 336 h
[40] = Toxicity in ICR mouse assessed as effect on lung at 45 mg/kg, po measured after 2 weeks by H and E staining based analysis; type: organism-based; settings: in vivo, 336 h
[41] = Toxicity in ICR mouse assessed as effect on kidney at 45 mg/kg, po measured after 2 weeks by H and E staining based analysis; type: organism-based; settings: in vivo, 336 h
[42] = target: Voltage-gated inwardly rectifying potassium channel KCNH2 (Homo sapiens, UniProt Q12809); experiment: Inhibtion of hERG transfected in HEK293 cells by whole cell patch clamp method; type: toxicity, cell-based
Voltage-gated inwardly rectifying potassium channel KCNH2, sequence (Q12809 whole entry): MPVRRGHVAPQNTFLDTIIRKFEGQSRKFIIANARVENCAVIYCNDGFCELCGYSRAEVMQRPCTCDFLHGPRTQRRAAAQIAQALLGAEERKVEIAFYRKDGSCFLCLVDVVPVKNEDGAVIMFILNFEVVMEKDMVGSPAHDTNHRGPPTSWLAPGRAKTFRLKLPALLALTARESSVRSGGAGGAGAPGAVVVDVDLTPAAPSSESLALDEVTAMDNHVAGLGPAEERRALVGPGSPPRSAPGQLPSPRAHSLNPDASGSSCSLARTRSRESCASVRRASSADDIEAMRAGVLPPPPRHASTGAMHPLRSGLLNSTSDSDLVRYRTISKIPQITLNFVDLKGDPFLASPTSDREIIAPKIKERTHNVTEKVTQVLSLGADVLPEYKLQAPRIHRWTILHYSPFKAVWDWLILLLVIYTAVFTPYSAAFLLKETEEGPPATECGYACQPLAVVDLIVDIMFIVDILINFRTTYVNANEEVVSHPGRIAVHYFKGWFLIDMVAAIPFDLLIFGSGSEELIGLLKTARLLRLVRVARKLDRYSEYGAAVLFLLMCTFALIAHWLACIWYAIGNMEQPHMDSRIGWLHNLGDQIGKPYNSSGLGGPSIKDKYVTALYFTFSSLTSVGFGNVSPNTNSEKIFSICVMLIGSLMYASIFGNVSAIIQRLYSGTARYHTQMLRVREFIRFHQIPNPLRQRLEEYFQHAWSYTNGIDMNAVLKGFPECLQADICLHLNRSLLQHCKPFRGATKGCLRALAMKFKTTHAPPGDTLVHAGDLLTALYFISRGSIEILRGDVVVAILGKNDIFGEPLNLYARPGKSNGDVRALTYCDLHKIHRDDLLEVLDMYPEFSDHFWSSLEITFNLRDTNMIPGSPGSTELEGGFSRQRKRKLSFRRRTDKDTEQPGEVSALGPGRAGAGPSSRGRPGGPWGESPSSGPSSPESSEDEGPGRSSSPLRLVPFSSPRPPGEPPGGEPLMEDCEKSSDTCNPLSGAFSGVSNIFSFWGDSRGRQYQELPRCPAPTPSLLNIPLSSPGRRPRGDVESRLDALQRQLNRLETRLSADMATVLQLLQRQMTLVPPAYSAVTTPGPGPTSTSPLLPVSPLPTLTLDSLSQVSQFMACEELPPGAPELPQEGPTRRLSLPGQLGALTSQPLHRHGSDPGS

Compound: C[C@H]1CCC/C=C/[C@@H]2C[C@H](OC(=O)OCc3cccnc3)C[C@H]2[C@H](O)/C=C/C(=O)O1
- solubility [1]: 1000 µg/mL (≈ 2410 µM)
- IC50 [2]: 0.07 µM
- solubility [3]: < 1000 µg/mL
- solubility [4]: < 1000 µg/mL
- solubility [5]: < 1000 µg/mL
- solubility [6]: < 1000 µg/mL
- solubility [7]: 15000 µg/mL (≈ 36100 µM)
- Stability [8]: Stable
- Stability [9]: Stable
- inhibition in vivo at 45 mg/kg [10]: 61%
- Activity [11]: Non-Toxic
- inhibition in vivo at 1 mg/kg [12]: 36.6%
- inhibition in vivo at 9 mg/kg [13]: 48.3%
- Activity [14]: Non-Toxic
- half-life [15]: 7.35 h
- Cmax [16]: 20.3 ng/mL
- MRT last [17]: 2.92 h
- Vz [18]: 6339.7436 L/kg
- CL/F [19]: 598 L/h/kg
- Cmax [20]: 2060 ng/mL
- AUC(0-t) [21]: 519 ng·h/mL
- MRT last [22]: 0.84 h
- Drug uptake [23]: Active
- Drug uptake [24]: Active
- Drug uptake [25]: Active
- Drug excretion [26]: Active
- Drug excretion [27]: Active
- Drug excretion [28]: Active
- MTD [29]: > 750 mg/kg
- MTD [30]: > 100 mg/kg
- Activity [31]: Non-Toxic
- Activity [32]: Non-Toxic
- Activity [33]: Non-Toxic
- Activity [34]: Non-Toxic
- Activity [35]: Non-Toxic
- Activity [36]: Non-Toxic
- Activity [37]: Non-Toxic
- Activity [38]: Non-Toxic
- Activity [39]: Non-Toxic
- Activity [40]: Non-Toxic
- Activity [41]: Non-Toxic
- IC50 [42]: > 30 µM
